Experimental data as given in ChEMBL document CHEMBL1201862, “PubChem BioAssay data set” (2004).
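1) Cells in 96-well plates. 2) Compound, 48 h, 5 concentrations. 3) Linear interpolation between surrounding doses. 4) Unreached endpoint = highest concentration. GI50 marks 50% less growth.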 Calls of active or inactive are those of the source. Rule as the data show it: active = GI50 up to about 1.1 µM and inactive = higher.

Legend:
Test in all cases: NCI tumour cell line growth inhibition, 48 h
DLD-1 = test system: DLD-1
M19-MEL = test system: M19-MEL
KM-20L2 = test system: KM-20L2
HOP-18 = test system: HOP-18
DMS-114 = test system: DMS-114
DMS-273 = test system: DMS-273
BT-549 = test system: BT-549
XF498 = test system: XF498
RXF 631 = test system: RXF 631

Structure (SMILES) | GI50 (DLD-1) | GI50 (KM-20L2) | GI50 (HOP-18) | GI50 (DMS-273) | GI50 (BT-549) | further results
CC(C)N(C(=O)C12CC3CC(CC(C3)C1)C2)C(C)C | > 50 µM (inactive) | > 50 µM (inactive) | > 50 µM (inactive) | > 50 µM (inactive) |  | GI50 (M19-MEL): > 50 µM (inactive); GI50 (DMS-114): > 50 µM (inactive)
COC(=O)C12OC(C)(C(CC(=O)OC(C)(C)C)C1=O)C1C(=O)N(c3ccccc3)C(=O)C12 (centres undefined) |  |  |  |  | > 100 µM (inactive) | 
CCC1=C(C)C(=O)N/C1=C\c1[nH]c(C)c([C@H](C)CCN)c1C |  |  |  |  | 16.3 µM (inactive) | 
COc1ccc(OC)c(CNc2ccc(C(=O)O)cc2)c1 |  |  |  |  | > 100 µM (inactive) | 
Nc1nc(S)c2c(N)n[nH]c2c1C(=O)Nc1ccccc1 |  |  |  |  | > 100 µM (inactive) | 
CC(=O)Oc1cc(OC(C)=O)c(OC(C)=O)c2c1CC1C(=O)C3(CCc4ccccc43)C(=O)C1C2 (centres undefined) | 14.2 µM (inactive) | 22.8 µM (inactive) | 28.5 µM (inactive) | 18.1 µM (inactive) |  | GI50 (XF498): 14.7 µM (inactive); GI50 (M19-MEL): 15.7 µM (inactive); GI50 (DMS-114): 11.7 µM (inactive)
CC1=C2C(=O)c3ccccc3C(=O)[C@H]2[C@H]2CCO[C@H]2O1 |  |  |  |  | 13.3 µM (inactive) | 
O=C(O)CCCc1cc2c(s1)-c1cccc3cccc-2c13 | 39 µM (inactive) | 52.2 µM (inactive) |  | 37.8 µM (inactive) |  | GI50 (XF498): 36.6 µM (inactive)
CC1CC(C#N)=C2NCCN2C1=O (centres undefined) |  |  |  |  | > 100 µM (inactive) | 
COc1ccccc1-n1c(C)nc2ccccc2c1=O | > 100 µM (inactive) | > 100 µM (inactive) | > 100 µM (inactive) | > 100 µM (inactive) |  | GI50 (M19-MEL): > 100 µM (inactive); GI50 (DMS-114): > 100 µM (inactive)
Cc1cc(O)nc(NNC(C#N)c2cccc([N+](=O)[O-])c2)n1 (centres undefined) | > 100 µM (inactive) | > 100 µM (inactive) | > 100 µM (inactive) | > 100 µM (inactive) |  | GI50 (M19-MEL): > 100 µM (inactive); GI50 (DMS-114): > 100 µM (inactive)
Cc1cc(-c2ccc(C(=O)C(c3ccccc3)(c3ccccc3)c3ccccc3)[nH]2)on1 |  |  |  |  | 18.7 µM (inactive) | 
C=CCCON(C(=O)OC(C)(C)C)C(C)(C)C |  |  |  |  | > 100 µM (inactive) | 
Cc1ccc(/N=C/C=C(\Nc2ccc(C)cc2)c2ccc3ccccc3c2)cc1 |  |  |  |  | 2.33 µM (inactive) | 
C[N+](C)(C)C1=NNC2=Nc3ccccc3SC2=C1 |  |  |  |  | 28.6 µM (inactive) | 
CN(C)C(=S)/N=c1\ssc(=S)n1Cc1ccccc1 | 0.348 µM (active) | 0.195 µM (active) | 2.22 µM (inactive) | 0.25 µM (active) | > 100 µM (inactive) | GI50 (XF498): 0.21 µM (active); GI50 (M19-MEL): 0.318 µM (active); GI50 (DMS-114): 0.201 µM (active)

Structure (SMILES) | GI50 (DLD-1) | GI50 (KM-20L2) | GI50 (HOP-18) | GI50 (DMS-273) | GI50 (BT-549) | further results
Cc1ccc(CC(C)N)cc1 (centres undefined) | > 100 µM (inactive) | > 100 µM (inactive) | > 100 µM (inactive) | > 100 µM (inactive) |  | GI50 (RXF 631): > 100 µM (inactive); GI50 (DMS-114): > 100 µM (inactive)
COc1cc(C(C#N)NNC(=O)Cc2ccccc2)cc(OC)c1OC (centres undefined) | > 100 µM (inactive) | > 100 µM (inactive) | > 100 µM (inactive) | > 100 µM (inactive) |  | GI50 (M19-MEL): > 100 µM (inactive); GI50 (DMS-114): 99.1 µM (inactive)
COc1cc2oc(=O)cc(C)c2cc1O |  |  |  |  | > 100 µM (inactive) | 
N#Cc1c(-c2ccccc2)cc(Nc2ccc(F)cc2)n2c1nc1ccccc12 |  |  |  |  | 3.24 µM (inactive) | 
c1ccc2c(c1)[nH]c1nc3cc(-c4ccc5nc6c(nc5c4)[nH]c4ccccc46)ccc3nc12 |  |  |  |  | > 100 µM (inactive) | 
CC/C(CC(=O)CCC(=O)Nc1ccccc1[N+](=O)[O-])=N/NC(=O)C[n+]1ccccc1 |  | > 100 µM (inactive) | > 100 µM (inactive) | > 100 µM (inactive) |  | GI50 (M19-MEL): > 100 µM (inactive); GI50 (RXF 631): > 100 µM (inactive)
CC1CC/C(=C\c2ccc(Cl)cc2)c2nc(N)c(C#N)c(-c3ccc(Cl)cc3)c21 (centres undefined) |  |  |  |  | 75.5 µM (inactive) | 
CN(Cc1ccccc1)C1(N(C)Cc2ccccc2)CC1 | > 100 µM (inactive) | > 100 µM (inactive) | > 100 µM (inactive) | > 100 µM (inactive) |  | GI50 (XF498): > 100 µM (inactive); GI50 (M19-MEL): > 100 µM (inactive); GI50 (DMS-114): > 100 µM (inactive)
COC12C=CC(CC1)c1c(O)ccc(O)c12 (centres undefined) | 50.4 µM (inactive) | 82.8 µM (inactive) | > 100 µM (inactive) | 46 µM (inactive) |  | GI50 (XF498): 19.7 µM (inactive); GI50 (M19-MEL): 22.5 µM (inactive); GI50 (DMS-114): 47.1 µM (inactive)
CC1CC(=O)NC2CC1C2(C)C (centres undefined) |  |  |  |  | > 100 µM (inactive) | 
CCC1(CC)C(=O)N(C(=O)c2ccc(C)cc2)N(C(=O)c2ccc(C)cc2)C1=O |  |  |  |  | > 75 µM (inactive) | 
CN/C(=N\N=C1/C(=O)Nc2ccccc21)SCC(=O)c1ccc(Br)cc1 |  |  |  |  | 68.1 µM (inactive) | 
CC1(C)OC1COc1c2occc2cc2ccc(=O)oc12 (centres undefined) |  |  |  |  | 38.8 µM (inactive) | 
COc1ccc(-c2c3c(cc4cc5c(cc24)OCO5)C(=O)OC3)cc1OC |  |  |  |  | 0.51 µM (active) | 
CC(C)Cc1cc2c(cc1O)CCC1C2CC[C@@]2(C)C1CC[C@@H]2O (some centres undefined) |  |  |  |  | 2.96 µM (inactive) | 
NC(Cc1cc(I)c(Oc2ccc(O)c(I)c2)c(I)c1)C(=O)O (centres undefined) [RATHYRONINE] |  |  |  |  | 61.1 µM (inactive) | 
